Reference: patent EP0497091A1, “Bridged cyclic ketal derivatives” (GLAXO GROUP LIMITED, priority 1991, dated 1992)
In brackets after ≈: the same amount, converted by molar mass.

Key:
[1] = test system: clinically relevant pathogens; assay: In vitro antifungal activity, agar plate MIC determination; type: cell-based; conditions: Candida albicans
Method: The in vitro evaluation of the anti-fungal activity of compounds of the invention can be performed by determining the minimum inhibitory concentration (MIC) which is the concentration of the test compound in a suitable medium at which growth of a particular microorganism fails to occur.
[¹⁴C] Squalene was separated from unreacted substrate on thin layer chromatography plates and determined by liquid scintillation counting. Inhibition of squalene synthase was quantified by incubating rat liver homogenate with various concentrations of the test compound in the presence of [2-¹⁴C] farnesylpyrophosphate. The concentration of compound giving 50% inhibition of [¹⁴C] squalene production in a 30 minute assay was taken as the IC₅₀ value. […] In practice, a series of agar plates, each having the test compound incorporated at a particular concentration, was inoculated with a standard culture of a clinically relevant pathogen, for example Candida albicans, and each plate was then incubated at 37 °C for 24 to 48 hours depending on the pathogen.

squalene synthase = target: T1, squalene synthase (Rattus norvegicus, UniProt Q02769); assay: Inhibition of squalene synthase ([14C]squalene production from [2-14C]farnesylpyrophosphate); type: biochemical
T1 construct: from tissue; host or cells: rat liver homogenate
T1 sequence (Q02769 1-416): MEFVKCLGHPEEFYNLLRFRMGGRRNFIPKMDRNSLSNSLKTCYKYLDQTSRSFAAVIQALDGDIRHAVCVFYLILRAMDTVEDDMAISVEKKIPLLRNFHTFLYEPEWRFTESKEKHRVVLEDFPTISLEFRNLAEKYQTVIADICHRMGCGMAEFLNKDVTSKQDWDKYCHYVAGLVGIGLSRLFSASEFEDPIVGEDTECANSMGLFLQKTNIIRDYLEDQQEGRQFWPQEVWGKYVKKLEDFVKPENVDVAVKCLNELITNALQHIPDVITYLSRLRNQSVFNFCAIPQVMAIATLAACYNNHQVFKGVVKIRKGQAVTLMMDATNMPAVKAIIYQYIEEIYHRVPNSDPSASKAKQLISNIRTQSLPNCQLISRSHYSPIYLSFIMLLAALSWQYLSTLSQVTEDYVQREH
Excerpt: A. Biller et al. in J. […] [¹⁴C]squalene is separated from unreacted substrate on thin layer chromatography plates and determined by liquid scintillation counting. […] Acta, Volume 877, 50-60 (1986) and modified to include measurement of cholesterol by high performance liquid chromatography (h.p.l.c.). […] A. […] [¹⁴C] Squalene was separated from unreacted substrate on thin layer chromatography plates and determined by liquid scintillation counting. Inhibition of squalene synthase was quantified by incubating rat liver homogenate with various concentrations of the test compound in the presence of [2-¹⁴C] farnesylpyrophosphate. The concentration of compound giving 50% inhibition of [¹⁴C] squalene production in a 30 minute assay was taken as the IC₅₀ value.

SMILES | MIC [1] [µg/mL] | IC50 (squalene synthase) [nM]
C=C(CC[C@]12O[C@H](C(=O)O)[C@@](O)(C(=O)O)[C@](C(=O)O)(O1)[C@H](OC(=O)CCCCCCC)[C@H]2O)[C@@H](OC(C)=O)[C@H](C)Cc1ccccc1 (relative stereo) [Example 31, [1S-[1α(4R*,5S*),3α,4β,5α,6α,7β]] 1-(4-Acetyloxy-5-methyl-3-methylene-6-phenylhexyl)-4,6,7-trihydroxy-2,8-dioxabicyclo[3.2.1]octane-3,4,5-tricarboxylic acid, 6-octanoate] | 0.1 to 31 (≈ 0.15 to 46.6 µM) | < 100
C=C(CC[C@]12O[C@H](C(=O)O)[C@@](O)(C(=O)O)[C@](C(=O)O)(O1)[C@H](OC(=O)CCCCCCc1ccccc1)[C@H]2O)[C@@H](OC(C)=O)[C@H](C)Cc1ccccc1 (relative stereo) [Example 39, [1S-[1α(4R*,5S*)3α,4β,5α,6α,7β]] 1-(4-Acetyloxy-5-methyl-3-methylene-6-phenylhexyl)-4,6,7-trihydroxy-2,8-dioxabicyclo[3.2.1]octane-3,4,5-tricarboxylic acid, 6-(7-phenylheptanoate)] | 0.1 to 31 (≈ 0.138 to 42.7 µM) | < 100
C=C(CC[C@]12O[C@H](C(=O)O)[C@@](O)(C(=O)O)[C@](C(=O)O)(O1)[C@H](OC(=O)CCCC1CCCCC1)[C@H]2O)[C@@H](OC(C)=O)[C@H](C)Cc1ccccc1 (relative stereo) [Example 41, [1S-[1α(4R*,5S*),3α,4β,5α,6α,7β]] 1-(4-Acetyloxy-5-methyl-3-methylene-6-phenylhexyl)-4,6,7-trihydroxy-2,8-dioxabicyclo[3.2.1]octane-3,4,5-tricarboxylic acid, 6-(4-cyclohexylbutanoate)] | 0.1 to 31 (≈ 0.145 to 44.9 µM) | < 100
C=C(CC[C@]12O[C@H](C(=O)O)[C@@](O)(C(=O)O)[C@](C(=O)O)(O1)[C@H](OC(=O)CC13CC4CC(CC(C4)C1)C3)[C@H]2O)[C@@H](OC(C)=O)[C@H](C)Cc1ccccc1 (relative stereo) [Example 45, [1S-[1α(4R*,5S*),3α,4β,5α,6α,7β]] 1-(4-Acetyloxy-5-methyl-3-methylene-6-phenylhexyl)-4,6,7-trihydroxy-2,8-dioxabicyclo[3.2.1]octane-3,4,5-tricarboxylic acid, 6-[1-(tricyclo[3.3.1.1^3,7]decyl)acetate]] | 0.1 to 31 (≈ 0.14 to 43.4 µM) | < 100
C=C(CC[C@]12O[C@H](C(=O)O)[C@@](O)(C(=O)O)[C@](C(=O)O)(O1)[C@H](OC(=O)OCCCCCCCCC)[C@H]2O)[C@@H](OC(C)=O)[C@H](C)Cc1ccccc1 (relative stereo) [Example 57, [1S-[1α(4R*,5S*),3α,4β.5α,6α,7β]] 1-(4-Acetyloxy-5-methyl-3-methylene-6-phenylhexyl)-4,7-dihydroxy-6-[(nonoxycarbonyl)oxy]-2,8-dioxabicyclo[3.2.1]octane-3,4,5-tricarboxylic acid] | 0.1 to 31 (≈ 0.141 to 43.7 µM) | < 100
C=C(CC[C@]12O[C@H](C(=O)O)[C@@](O)(C(=O)O)[C@](C(=O)O)(O1)[C@H](OC(=O)CC=CCCCC)[C@H]2O)[C@@H](OC(C)=O)[C@H](C)Cc1ccccc1 (relative stereo) [Example 64, [1S-[1α(4R*,5S*),3α,4β,5α,6α,7β]] 1-(4-Acetyloxy-5-methyl-3-methylene-6-phenylhexyl)-4,6,7-trihydroxy-2,8-dioxabicyclo[3.2.1]octane-3,4,5-tricarboxylic acid, 6-[(E/Z)-3-octenoate]] | 0.1 to 31 (≈ 0.151 to 46.8 µM) | < 100
CCC(C)CC(C)CCC(=O)OC1C(O)C2(CCC(O)C(O)C(C)Cc3ccccc3)OC(C(=O)O)C(O)(C(=O)O)C1(C(=O)O)O2 (stereo not drawn) [Example 18, [1S-[1α(3R*S*,4R*,5S*),3α,4β,5α,6α(4S*,6R*),7β]] 1-(3,4-Dihydroxy-5-methyl-6-phenylhexyl)-4,6,7-trihydroxy-2,8-dioxabicyclo[3.2.1]octane-3,4,5-tricarboxylic acid, 6-(4,6-dimethyloctanoate)] | 0.1 to 31 (≈ 0.153 to 47.3 µM) | < 100
C=C(CCC12OC(C(=O)O)C(O)(C(=O)O)C(C(=O)O)(O1)C(OC(=O)C=CC(C)CC(C)CC)C2OC(C)=O)C(OC(C)=O)C(C)Cc1ccccc1 (stereo not drawn) [Example 24, [1S-[1α(4R*,5S*),3α,4β,5α,6α(2E,4R*,6R*),7β]] 7-Acetyloxy-1-(4-acetyloxy-5-methyl-3-methylene-6-phenylhexyl)-4,6-dihydroxy-2,8-dioxabicyclo[3.2.1]octane-3,4,5-tricarboxylic acid, 6-(4,6-dimethyl-2-octenoate)] | 0.1 to 31 (≈ 0.136 to 42.3 µM) | < 100
